{
  "source": "the NIST ThermoML archive (doi:10.1021/je800817b)",
  "test": "xn = mol fraction of the nth substance listed",
  "conditions": "101 kPa, Liquid, x1 = 0",
  "data": [
    {"smiles": "CCCCCCCCn1cc[n+](C)c1.O=S(=O)([N-]S(=O)(=O)C(F)(F)F)C(F)(F)F", "note": "+ CC#N", "values": [
      {"measurement": "binary diffusion coefficient", "setting": "283 K", "value": "1.62e-09", "unit": "m2/s"},
      {"measurement": "binary diffusion coefficient", "setting": "298 K", "value": "2e-09", "unit": "m2/s"},
      {"measurement": "binary diffusion coefficient", "setting": "313 K", "value": "2.31e-09", "unit": "m2/s"},
      {"measurement": "binary diffusion coefficient", "setting": "323 K", "value": "2.57e-09", "unit": "m2/s"},
      {"measurement": "binary diffusion coefficient", "setting": "333 K", "value": "2.86e-09", "unit": "m2/s"}
    ]},
    {"smiles": "CCCCCC[n+]1ccn(C)c1.O=S(=O)([N-]S(=O)(=O)C(F)(F)F)C(F)(F)F", "note": "+ CC#N", "values": [
      {"measurement": "binary diffusion coefficient", "setting": "283 K", "value": "1.67e-09", "unit": "m2/s"},
      {"measurement": "binary diffusion coefficient", "setting": "298 K", "value": "2.1e-09", "unit": "m2/s"},
      {"measurement": "binary diffusion coefficient", "setting": "313 K", "value": "2.51e-09", "unit": "m2/s"},
      {"measurement": "binary diffusion coefficient", "setting": "323 K", "value": "2.74e-09", "unit": "m2/s"},
      {"measurement": "binary diffusion coefficient", "setting": "333 K", "value": "2.99e-09", "unit": "m2/s"}
    ]},
    {"smiles": "CCCC[n+]1ccn(C)c1.O=S(=O)([N-]S(=O)(=O)C(F)(F)F)C(F)(F)F", "note": "+ CC#N", "values": [
      {"measurement": "binary diffusion coefficient", "setting": "283 K", "value": "1.7e-09", "unit": "m2/s"},
      {"measurement": "binary diffusion coefficient", "setting": "298 K", "value": "2.22e-09", "unit": "m2/s"},
      {"measurement": "binary diffusion coefficient", "setting": "313 K", "value": "2.7e-09", "unit": "m2/s"},
      {"measurement": "binary diffusion coefficient", "setting": "323 K", "value": "3.07e-09", "unit": "m2/s"},
      {"measurement": "binary diffusion coefficient", "setting": "333 K", "value": "3.45e-09", "unit": "m2/s"}
    ]},
    {"smiles": "CCn1cc[n+](C)c1.O=S(=O)([N-]S(=O)(=O)C(F)(F)F)C(F)(F)F", "note": "+ CC#N", "values": [
      {"measurement": "binary diffusion coefficient", "setting": "283 K", "value": "1.79e-09", "unit": "m2/s"},
      {"measurement": "binary diffusion coefficient", "setting": "298 K", "value": "2.29e-09", "unit": "m2/s"},
      {"measurement": "binary diffusion coefficient", "setting": "313 K", "value": "2.78e-09", "unit": "m2/s"},
      {"measurement": "binary diffusion coefficient", "setting": "323 K", "value": "3.15e-09", "unit": "m2/s"},
      {"measurement": "binary diffusion coefficient", "setting": "333 K", "value": "3.48e-09", "unit": "m2/s"}
    ]},
    {"smiles": "CCCCCCCCn1cc[n+](C)c1.O=S(=O)([N-]S(=O)(=O)C(F)(F)F)C(F)(F)F", "note": "+ CO", "values": [
      {"measurement": "binary diffusion coefficient", "setting": "283 K", "value": "9.9e-10", "unit": "m2/s"},
      {"measurement": "binary diffusion coefficient", "setting": "298 K", "value": "1.32e-09", "unit": "m2/s"},
      {"measurement": "binary diffusion coefficient", "setting": "313 K", "value": "1.59e-09", "unit": "m2/s"},
      {"measurement": "binary diffusion coefficient", "setting": "323 K", "value": "1.83e-09", "unit": "m2/s"},
      {"measurement": "binary diffusion coefficient", "setting": "333 K", "value": "2.12e-09", "unit": "m2/s"}
    ]},
    {"smiles": "CCCCCC[n+]1ccn(C)c1.O=S(=O)([N-]S(=O)(=O)C(F)(F)F)C(F)(F)F", "note": "+ CO", "values": [
      {"measurement": "binary diffusion coefficient", "setting": "283 K", "value": "1.05e-09", "unit": "m2/s"},
      {"measurement": "binary diffusion coefficient", "setting": "298 K", "value": "1.34e-09", "unit": "m2/s"},
      {"measurement": "binary diffusion coefficient", "setting": "313 K", "value": "1.64e-09", "unit": "m2/s"},
      {"measurement": "binary diffusion coefficient", "setting": "323 K", "value": "1.99e-09", "unit": "m2/s"},
      {"measurement": "binary diffusion coefficient", "setting": "333 K", "value": "2.21e-09", "unit": "m2/s"}
    ]},
    {"smiles": "CCCC[n+]1ccn(C)c1.O=S(=O)([N-]S(=O)(=O)C(F)(F)F)C(F)(F)F", "note": "+ CO", "values": [
      {"measurement": "binary diffusion coefficient", "setting": "283 K", "value": "1.11e-09", "unit": "m2/s"},
      {"measurement": "binary diffusion coefficient", "setting": "298 K", "value": "1.48e-09", "unit": "m2/s"},
      {"measurement": "binary diffusion coefficient", "setting": "313 K", "value": "1.88e-09", "unit": "m2/s"},
      {"measurement": "binary diffusion coefficient", "setting": "323 K", "value": "2.15e-09", "unit": "m2/s"},
      {"measurement": "binary diffusion coefficient", "setting": "333 K", "value": "2.43e-09", "unit": "m2/s"}
    ]},
    {"smiles": "CCn1cc[n+](C)c1.O=S(=O)([N-]S(=O)(=O)C(F)(F)F)C(F)(F)F", "note": "+ CO", "values": [
      {"measurement": "binary diffusion coefficient", "setting": "283 K", "value": "1.17e-09", "unit": "m2/s"},
      {"measurement": "binary diffusion coefficient", "setting": "298 K", "value": "1.6e-09", "unit": "m2/s"},
      {"measurement": "binary diffusion coefficient", "setting": "313 K", "value": "2.03e-09", "unit": "m2/s"},
      {"measurement": "binary diffusion coefficient", "setting": "323 K", "value": "2.3e-09", "unit": "m2/s"},
      {"measurement": "binary diffusion coefficient", "setting": "333 K", "value": "2.69e-09", "unit": "m2/s"}
    ]},
    {"smiles": "CCCCCCCCn1cc[n+](C)c1.O=S(=O)([N-]S(=O)(=O)C(F)(F)F)C(F)(F)F", "note": "+ O", "values": [
      {"measurement": "binary diffusion coefficient", "setting": "283 K", "value": "5.7e-10", "unit": "m2/s"},
      {"measurement": "binary diffusion coefficient", "setting": "298 K", "value": "8.1e-10", "unit": "m2/s"},
      {"measurement": "binary diffusion coefficient", "setting": "303 K", "value": "8.7e-10", "unit": "m2/s"},
      {"measurement": "binary diffusion coefficient", "setting": "313 K", "value": "1.05e-09", "unit": "m2/s"},
      {"measurement": "binary diffusion coefficient", "setting": "323 K", "value": "1.31e-09", "unit": "m2/s"},
      {"measurement": "binary diffusion coefficient", "setting": "333 K", "value": "1.47e-09", "unit": "m2/s"}
    ]},
    {"smiles": "CCCCCC[n+]1ccn(C)c1.O=S(=O)([N-]S(=O)(=O)C(F)(F)F)C(F)(F)F", "note": "+ O", "values": [
      {"measurement": "binary diffusion coefficient", "setting": "283 K", "value": "5.8e-10", "unit": "m2/s"},
      {"measurement": "binary diffusion coefficient", "setting": "298 K", "value": "8.3e-10", "unit": "m2/s"},
      {"measurement": "binary diffusion coefficient", "setting": "303 K", "value": "9e-10", "unit": "m2/s"},
      {"measurement": "binary diffusion coefficient", "setting": "313 K", "value": "1.15e-09", "unit": "m2/s"},
      {"measurement": "binary diffusion coefficient", "setting": "323 K", "value": "1.39e-09", "unit": "m2/s"},
      {"measurement": "binary diffusion coefficient", "setting": "333 K", "value": "1.63e-09", "unit": "m2/s"}
    ]},
    {"smiles": "CCCC[n+]1ccn(C)c1.O=S(=O)([N-]S(=O)(=O)C(F)(F)F)C(F)(F)F", "note": "+ O", "values": [
      {"measurement": "binary diffusion coefficient", "setting": "283 K", "value": "6e-10", "unit": "m2/s"},
      {"measurement": "binary diffusion coefficient", "setting": "298 K", "value": "8.5e-10", "unit": "m2/s"},
      {"measurement": "binary diffusion coefficient", "setting": "303 K", "value": "9.6e-10", "unit": "m2/s"},
      {"measurement": "binary diffusion coefficient", "setting": "313 K", "value": "1.16e-09", "unit": "m2/s"},
      {"measurement": "binary diffusion coefficient", "setting": "323 K", "value": "1.47e-09", "unit": "m2/s"},
      {"measurement": "binary diffusion coefficient", "setting": "333 K", "value": "1.74e-09", "unit": "m2/s"}
    ]},
    {"smiles": "CCn1cc[n+](C)c1.O=S(=O)([N-]S(=O)(=O)C(F)(F)F)C(F)(F)F", "note": "+ O", "values": [
      {"measurement": "binary diffusion coefficient", "setting": "283 K", "value": "6.1e-10", "unit": "m2/s"},
      {"measurement": "binary diffusion coefficient", "setting": "298 K", "value": "8.9e-10", "unit": "m2/s"},
      {"measurement": "binary diffusion coefficient", "setting": "303 K", "value": "9.8e-10", "unit": "m2/s"},
      {"measurement": "binary diffusion coefficient", "setting": "313 K", "value": "1.27e-09", "unit": "m2/s"},
      {"measurement": "binary diffusion coefficient", "setting": "323 K", "value": "1.55e-09", "unit": "m2/s"},
      {"measurement": "binary diffusion coefficient", "setting": "333 K", "value": "1.85e-09", "unit": "m2/s"}
    ]},
    {"smiles": "CCCCn1cc[n+](C)c1.[Cl-]", "note": "[1-butyl-3-methylimidazolium chloride] + O", "values": [
      {"measurement": "binary diffusion coefficient", "setting": "283 K", "value": "8.3e-10", "unit": "m2/s"},
      {"measurement": "binary diffusion coefficient", "setting": "298 K", "value": "1.18e-09", "unit": "m2/s"},
      {"measurement": "binary diffusion coefficient", "setting": "303 K", "value": "1.32e-09", "unit": "m2/s"},
      {"measurement": "binary diffusion coefficient", "setting": "313 K", "value": "1.66e-09", "unit": "m2/s"},
      {"measurement": "binary diffusion coefficient", "setting": "323 K", "value": "2.01e-09", "unit": "m2/s"},
      {"measurement": "binary diffusion coefficient", "setting": "333 K", "value": "2.4e-09", "unit": "m2/s"}
    ]},
    {"smiles": "CCCCn1cc[n+](C)c1.F[B-](F)(F)F", "note": "[1-butyl-3-methylimidazolium tetrafluoroborate] + O", "values": [
      {"measurement": "binary diffusion coefficient", "setting": "283 K", "value": "7.7e-10", "unit": "m2/s"},
      {"measurement": "binary diffusion coefficient", "setting": "298 K", "value": "1.14e-09", "unit": "m2/s"},
      {"measurement": "binary diffusion coefficient", "setting": "303 K", "value": "1.28e-09", "unit": "m2/s"},
      {"measurement": "binary diffusion coefficient", "setting": "313 K", "value": "1.55e-09", "unit": "m2/s"},
      {"measurement": "binary diffusion coefficient", "setting": "323 K", "value": "1.97e-09", "unit": "m2/s"},
      {"measurement": "binary diffusion coefficient", "setting": "333 K", "value": "2.26e-09", "unit": "m2/s"}
    ]}
  ]
}
